# Results from US9550811B2, “Peptide scaffold design” (BIONOR IMMUNO AS, priority 2010, dated 2017).
# Where no end group is shown, it is not given here. [ ]: non-standard residue; d: D form. Cit = NC(=O)NCCC[C@H](N)C(=O)O; Nle = CCCC[C@H](N)C(=O)O
# Legend:
# Experiment in all cases: REVEAL binding assay
# Conditions in all cases: score as percentage of the signal generated by the positive control peptide
# [1] = system: HLA-B40
# In short: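 Each candidate ninemer is assessed for binding and stabilizing the allele's MHC–peptide complex, detected as native conformation. Results are given relative to a positive control epitope, and an intermediate binder serves as a performance check.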
# [2] = system: HLA-A29
# Description: (§2) HLA-A1, HLA-A2, HLA-A3, HLA-A11, HLA-A24, HLA-A29, HLA-B7, HLA-B8, HLA-B14, HLA-B15, HLA-B27, HLA-B35, HLA-B40.
# (§3) The REVEAL™ binding assay determined the ability of each candidate peptide to bind to one or more MHC class I alleles and stabilizing the MHC-peptide complex. […] Detection is based on the presence or absence of the native conformation of the MHC-peptide complex. Each peptide is given a score relative to the positive control peptide, which is a known T cell epitope.
# [3] = biological target: HLA-A11 (Homo sapiens, UniProt P04439, A114D/F33Y/S129P)
# In short: (§1)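 Synthetic nonamer peptides were tested for their ability to bind and stabilize MHC class I–peptide complexes, detected by the native conformation of the complex. Each peptide is scored relative to a positive-control known T-cell epitope.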
# [4] = biological target: HLA-B7 (Homo sapiens, UniProt P01889)
# Chain of HLA-B7 (P61769 21-119): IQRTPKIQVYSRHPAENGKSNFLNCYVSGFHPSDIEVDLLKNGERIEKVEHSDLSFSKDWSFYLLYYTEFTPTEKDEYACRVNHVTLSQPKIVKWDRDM
# Chain of HLA-B7 (P01889 25-299): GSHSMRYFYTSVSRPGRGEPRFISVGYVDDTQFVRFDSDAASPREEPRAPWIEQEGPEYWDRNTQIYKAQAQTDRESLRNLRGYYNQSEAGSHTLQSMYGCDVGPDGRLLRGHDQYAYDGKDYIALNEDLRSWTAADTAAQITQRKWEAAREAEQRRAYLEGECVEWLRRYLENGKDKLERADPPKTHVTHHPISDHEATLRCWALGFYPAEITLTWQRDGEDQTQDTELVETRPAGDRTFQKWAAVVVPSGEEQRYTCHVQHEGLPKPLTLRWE
# In short: as §1
# [5] = biological target: HLA-A2 (Homo sapiens, UniProt P04439, D140Y/D185E/D98H/E176V/E277Q/G131W/G231S/I119V/I121R/I166T/I218V/N151K/N90K/P208A/P217A/Q86G/Q94H/R138H/R169H)
# In short: as §1
# [6] = biological target: HLA-B27 (Homo sapiens, UniProt P01889, D138H/D201E/E176V/E204Q/G107R/H137Y/K202T/N104T/N87E/Q56L/Q94K/R106L/R155S/R180L/S101D/S121N/S48T/Y140D/Y33H/Y91C)
# In short: as §1
# [7] = biological target: HLA-A3 (Homo sapiens, UniProt P04439)
# Chain of HLA-A3 (P04439 25-299): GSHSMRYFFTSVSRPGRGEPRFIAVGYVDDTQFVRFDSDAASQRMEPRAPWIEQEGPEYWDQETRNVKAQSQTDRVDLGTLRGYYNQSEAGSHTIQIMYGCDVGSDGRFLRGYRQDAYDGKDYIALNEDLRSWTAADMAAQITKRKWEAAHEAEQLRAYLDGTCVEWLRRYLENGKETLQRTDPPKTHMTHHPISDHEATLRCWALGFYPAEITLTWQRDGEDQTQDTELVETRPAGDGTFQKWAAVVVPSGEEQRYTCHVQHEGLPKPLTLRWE
# Chain of HLA-A3 (P61769 21-119, further chain): as the sequence (P61769 21-119) above
# In short: as §1
# [8] = system: HLA-B15
# [9] = system: HLA-B14
# Description: as §2, §3
# [10] = system: HLA-A24
# Protocol: (§4) Binding properties to HLA for the ninemers listed in table 6 were tested for the following HLA-classes:
# as §2, §3
# [11] = system: HLA-B8
# [12] = system: HLA-A1
# Protocol: as §4, §2, §3
# [13] = system: HLA-B35
# Description: as §2, §3
Substance,"REVEAL binding score, HLA-type B40 [1]","REVEAL binding score, HLA-type A29 [2]","REVEAL binding score, HLA-type A11 [3]","REVEAL binding score, HLA-type B7 [4]","REVEAL binding score, HLA-type A2 [5]","REVEAL binding score, HLA-type B27 [6]","REVEAL binding score, HLA-type A3 [7]","REVEAL binding score, HLA-type B15 [8]","REVEAL binding score, HLA-type B14 [9]","REVEAL binding score, HLA-type A24 [10]","REVEAL binding score, HLA-type B8 [11]","REVEAL binding score, HLA-type A1 [12]","REVEAL binding score, HLA-type B35 [13]"
L[Nle]GYIPLIG,57.46%,25.94%,2.48%,0.89%,49.48%,0.73%,3.98%,14.60%,0.15%,0.71%,17.29%,14.33%,2.85%
GRVIETLTS,38.91%,15.59%,27.62%,1.25%,5.26%,1.05%,12.46%,8.31%,0.20%,0.88%,12.91%,14.42%,3.56%
GP[Cit]IGVRAT,19.61%,11.88%,2.72%,5.38%,9.16%,0.59%,3.48%,7.29%,0.13%,0.16%,9.99%,18.60%,2.25%
VARALAHGV,44.29%,29.43%,3.47%,31.59%,5.85%,0.62%,2.77%,11.26%,0.17%,0.32%,14.31%,16.10%,0.27%
YVTGNIPGS,88.29%,10.29%,5.18%,2.70%,6.88%,1.98%,5.34%,6.16%,0.76%,2.71%,12.40%,13.33%,4.42%
[Nle]GYIPLIGA,60.84%,27.85%,7.27%,1.78%,10.43%,1.42%,3.13%,11.07%,0.29%,1.33%,21.35%,17.87%,5.89%
LGRVIETLT,62.07%,12.31%,20.27%,2.66%,5.90%,2.54%,7.40%,16.38%,0.28%,0.97%,14.74%,16.33%,3.43%
GITFSIYLI,68.30%,10.42%,4.88%,2.07%,7.27%,3.29%,1.42%,8.15%,0.63%,3.05%,8.94%,9.61%,9.27%
KVIDTLTCG,32.89%,13.16%,8.91%,0.57%,19.13%,0.63%,4.27%,10.13%,0.18%,0.57%,13.17%,15.77%,2.74%
RNLGKVIDT,48.14%,10.18%,6.22%,2.42%,6.42%,2.73%,3.15%,11.79%,0.61%,1.04%,13.80%,18.90%,4.40%
